Test results: patent US10227356B2, “Compounds, compositions and methods for inhibiting CNKSR1” (Phusis Therapeutics, Inc., priority 2015, dated 2019)

Target: T1, PLEKHA7 PH-domain (Homo sapiens, UniProt Q6IQ23)
T1 construct: The plekstrin homology domain of CNK and PLEKHA7 expressed with GST at the N-terminus; made in house
T1 sequence (Q6IQ23 164-282 limits assumed): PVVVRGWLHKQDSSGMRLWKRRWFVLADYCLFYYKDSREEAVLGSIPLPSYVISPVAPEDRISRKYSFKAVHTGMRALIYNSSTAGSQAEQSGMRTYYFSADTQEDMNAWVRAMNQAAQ
Assay: Surface plasmon resonance binding to PLEKHA7 PH-domain
Details: SPR; read-out: PLEK KD
Experimental: The plekstrin homology domain of CNK and PLEKHA7 expressed with GST at the N-terminus, CNK(PH)-GST were immobilized on a CM5 chip. Analysis of potential small molecule drug binding was done using a Biacore T200. Immobilization of antibody was run at 37° C. and a flow rate of 5 μL/min. A freshly prepared mixture of aqueous 0.4M 1-ethyl-3-(3-dimethylaminopropyl)carbodiimide hydrochloride (EDC) and aqueous 0.1M N-hydroxysuccinamide (NETS), (0.2M/0.05M EDC/NHS solution) is injected for 480 seconds over a conditioned (Tanious, et al doi:10.1016/50091-679X(07)84003-9) CM5 chip flow cell. The activated surface is then injected at 37° C., flow rate of 5 μL/min for 480 sec with 30 μg/mL anti-GST antibody, freshly suspended in pH 5.0 10 mM acetate buffer. Expected capture is 12000-20000 response units (RU). The remaining active surface is deactivated with 480 sec injections of 0.1M ethylenediamine in borate buffer (GE Healthcare) and then 1M ethanolamine pH 8.5 to provide 10000-18000 RU of covalently linked antibody on the flow cell. An upstream reference flow cell (Fc1) and a downstream working flow cell (Fc2) are prepared in this manner. […] Binding responses were determined 4 seconds prior to the conclusion of the injection. […]

Kd: 261 µM
Compound: CCOC(=O)/C=C/c1cc(NS(=O)(=O)c2cccs2)c2c(c1O)OCO2 [Compound 88, (E)-ethyl 3-(4-hydroxy-7-(thiophene-2-sulfonamido)benzo[d][1,3]dioxol-5-yl)acrylate]
